# Read-outs that look alike come from different tables or passages of the source.
# Legend:
# E. coli ATCC 10536 = assay: BCT test (bacterial contact time), 45 s, log reduction / effect fraction; CI by Compusyn; format: cell-based, Escherichia coli; conditions: Escherichia coli, ATCC10536, 45 s; for log reduction at […] strength: dose […] w/v
# Summary of the method: (§1)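 Combination index comes from dose and effect fraction of each blend and its single components, with values under 0.9 taken as synergistic and above 1.0 as antagonistic. Effect reflects log reduction in viable count after short contact of ~1×10^8 bacteria/mL with ethanolic test solutions.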
# S. haemolyticus 114126 = assay: BCT test (bacterial contact time), 120 s, log reduction / effect fraction; CI by Compusyn; format: cell-based; conditions: Staphylococcus haemolyticus, 114126, 2 min
# Procedure: S. haemolyticus: Suspensions of the S. haemolyticus 114126 strain, isolated from skin, were prepared as follows: Stock cultures (stored at −80° C.) were thawed and sub-cultured onto TSA-TW80 agar plate media, and incubated at 37° C. for 24 h to obtain single colonies. Single colonies of the primary cultures were streaked onto fresh TSA-TW80 plates and incubated at 37° C. for 24 h to prepare secondary cultures. Single colonies of secondary cultures were picked and used to inoculate 50 mL of BHI-TW80 broth. The inoculated broth was incubated at 37° C. at 180 rpm for 18 h. Aliquots (0.5 ml) of the 18 h culture were inoculated into 50 ml of fresh BHI-TW80 broth, and incubated at 37° C. at 180 rpm for approximately 3 hours. When the OD 600 nm value of the broth reached 1-2, cells were harvested by centrifugation at 5000 rpm for 10 min, and then resuspended in fresh BHI-TW80 broth at a concentration of 1-5×10^8 CFU/mL. This suspension was used as the bacterial suspension for the BCT test.
# (§2) BCT Test: Test compositions at a range of concentrations (either combinations of more than one perfume ingredient, and comparative compositions comprising the single perfume ingredients) were prepared in ethanol. Five replicates of each test composition were added into 96-well microtiter plates (120 μl per well), with row B containing control compositions containing the ethanol solution alone. 120 μl of bacterial cell suspensions at a concentration of approximately 1×10^8 bacteria per mL (as prepared above) were added to each well of the microtiter plate. The bacterial suspensions were incubated with the test solutions for 45, 60, or 120 seconds. Following the incubation of the bacterial suspensions with the test solutions, serial dilutions of the bacterial suspensions were generated (three serial 1:10 dilutions, followed by 17 serial 1:2 dilutions), in multiwell microtiter plates.
# (§3) Each plate was sealed and incubated at 37° C. under agitation (180 rpm). After incubation, the turbidity of the wells (OD600 nm) was determined using a Tecan microplate reader. Turbid wells were regarded as positive growth, due to the presence of viable cells. The total number of viable cells (log CFU) for each sample was calculated. And the log reduction for each test composition at the final concentration (dose) was calculated against the control sample of the ethanol solution.
# (§4) Determination of Synergy via the Combination Index (CI): The CI was calculated using Compusyn software (ComboSyn, Inc., as created by Dr. Dorothy Chou in 2005), according to the manufacturer's instructions. The concentration of each test composition (combinations of more than one perfume ingredient, and comparative compositions comprising the single perfume ingredients used to generate the combination) and their corresponding effect fraction was entered, and the corresponding CI calculated.
# (§5) When the calculated CI values were less than 0.9, the combination of perfume ingredients was regarded as having synergistic effect. When the calculated CI was between 1.0 a 0.9, the combination of perfume ingredients was regarded as having an additive effect. When the calculated CI was greater than 1.0, the combination of perfume ingredients was regarded as having an antagonistic effect.
# [1] = tested on: Salmonella enterica ATCC 10708; assay: BCT test (bacterial contact time), 60 s, log reduction / effect fraction; CI by Compusyn; format: cell-based; conditions: Salmonella enterica, ATCC10708, 1 min
# Summary of the method: as §1
# [2] = tested on: Pseudomonas aeruginosa ATCC 15442; assay: as above; format: cell-based; conditions: Pseudomonas aeruginosa, ATCC15442, 1 min, BCT 60 s, in 25% EtOH
# Summary of the method: as §1
# C. xerosis ATCC 373 = assay: BCT test (bacterial contact time), 120 s, log reduction / effect fraction; CI by Compusyn; format: cell-based; conditions: Corynebacterium xerosis, ATCC373, 2 min
# Procedure: C. xerosis: Suspensions of the C. xerosis ATCC 373 strain were prepared as follows: Stock cultures (stored at −80° C.) were thawed and subcultured onto Tryptic Soy Agar media with Tween 80 (TSA-TW80), and incubated at 37° C. for 48 h. The primary cultures were subcultured onto TSA-TW80 again, to prepare the secondary cultures. Single colonies of the secondary cultures were selected and used to inoculate 30 ml brain heart infusion broth with Tween 80 (BHI-TW80). The inoculated broth was incubated at 37° C. at 180 rpm for 24 h. Aliquots (1 ml) of the 24 h culture were inoculated into 30 ml of fresh BHI-TW80 broth media, and incubated at 37° C. at 180 rpm for 48 h. Aliquots (2-3 ml) of the 48 h culture were inoculated into four 50 ml of fresh BHI-TW80 broth media, and incubated at 37° C. 180 rpm for 4-6 hrs. When the OD 600 nm reached the target value of 1.6, cells were harvested by centrifugation at 5000 rpm for 10 min, and then resuspended in the same fresh BHI-TW80 at a concentration of 10^9 to 10^10 cfu/mL. This suspension was used as the bacterial suspension for the BCT test.
# as §2, §3, §4, §5
# [3] = dose 0.1% w/v, contact 120 s, 25% EtOH
# [4] = dose 0.15% w/v, contact 120 s, 25% EtOH
smiles,measurement,setting,value
"CC(C=O)Cc1ccc2c(c1)OCO2 (centres unmarked) [Heliopropanal, 3-(1,3-Benzodioxol-5-yl)-2-methylpropanal]",log reduction at 0.1 % strength,"E. coli ATCC 10536; dose 0.100 % w/v, 45 s, in 20% EtOH",1
same,log reduction at 0.1 % strength,"E. coli ATCC 10536; dose 0.1% w/v, contact 45 s, 20% EtOH",0.5
same,log reduction at 0.12 % strength,"E. coli ATCC 10536; dose 0.120 % w/v, 45 s, in 20% EtOH",2.1
same,log reduction at 0.12 % strength,"E. coli ATCC 10536; dose 0.12% w/v, contact 45 s, 20% EtOH",1.1
same,log reduction at 0.14 % strength,"E. coli ATCC 10536; dose 0.140 % w/v, 45 s, in 20% EtOH",4.3
same,log reduction at 0.14 % strength,"E. coli ATCC 10536; dose 0.14% w/v, contact 45 s, 20% EtOH",3.1
same,log reduction at 0.16 % strength,"E. coli ATCC 10536; dose 0.160 % w/v, 45 s, in 20% EtOH",7.3
same,log reduction at 0.16 % strength,"E. coli ATCC 10536; dose 0.16% w/v, contact 45 s, 20% EtOH",7
same,log reduction at […] strength,"E. coli ATCC 10536; 45 s, in 20% EtOH",7.3
same,log reduction at […] strength,"E. coli ATCC 10536; contact 45 s, 20% EtOH",7.4
same,log reduction at 0.175 % strength,S. haemolyticus 114126,0.1
same,log reduction at 0.25 % strength,S. haemolyticus 114126,0.3
same,log reduction at 0.3 % strength,S. haemolyticus 114126,1.5
same,log reduction at 0.4 % strength,S. haemolyticus 114126,3.2
same,log reduction at 0.45 % strength,S. haemolyticus 114126,5.2
same,log reduction at 0.05 % strength,[1],0
same,log reduction at 0.1 % strength,[1],0.8
same,log reduction at 0.12 % strength,[1],2.9
same,log reduction at 0.13 % strength,[1],3.9
same,log reduction at 0.14 % strength,[1],5.5
same,log reduction at 0.175 % strength,[2]; Dose 0.175 % w/v,4.8
same,log reduction at 0.2 % strength,[2]; Dose 0.2 % w/v,7.2
same,log reduction at 0.25 % strength,[2]; Dose 0.25 % w/v,7.4
same,log reduction at 0.2 % strength,C. xerosis ATCC 373,0.1
same,log reduction at 0.25 % strength,C. xerosis ATCC 373,0.3
same,log reduction at 0.3 % strength,C. xerosis ATCC 373,1.4
same,log reduction at 0.35 % strength,C. xerosis ATCC 373,1.8
same,log reduction at 0.4 % strength,C. xerosis ATCC 373,2.2
"C=C(C)[C@@H]1CC=C(CO)CC1 [Perycorolle, (S)-(−)-(4-Isopropenyl-1-cyclohexenyl)methanol]",log reduction at 0.05 % strength,"E. coli ATCC 10536; dose 0.05% w/v, contact 45 s, 20% EtOH",0
same,log reduction at 0.07 % strength,"E. coli ATCC 10536; dose 0.07% w/v, contact 45 s, 20% EtOH",1.2
same,log reduction at 0.08 % strength,"E. coli ATCC 10536; dose 0.08% w/v, contact 45 s, 20% EtOH",3.7
same,log reduction at 0.09 % strength,"E. coli ATCC 10536; dose 0.09% w/v, contact 45 s, 20% EtOH",6
same,log reduction at 0.1 % strength,"E. coli ATCC 10536; dose 0.1% w/v, contact 45 s, 20% EtOH, read-out: Log reduction",7.4
same,log reduction at 0.1 % strength,S. haemolyticus 114126; [3],-0.2
same,log reduction at 0.125 % strength,"S. haemolyticus 114126; dose 0.125% w/v, contact 120 s, 25% EtOH",0.4
same,log reduction at 0.15 % strength,S. haemolyticus 114126; [4],1.9
same,log reduction at 0.175 % strength,"S. haemolyticus 114126; dose 0.175% w/v, contact 120 s, 25% EtOH, read-out: Log reduction",6.4
same,log reduction at 0.2 % strength,"S. haemolyticus 114126; dose 0.2% w/v, contact 120 s, 25% EtOH",7.2
same,log reduction at 0.04 % strength,"[1]; Dose 0.04 % w/v, BCT 60 s, in 25% EtOH",0
same,log reduction at 0.05 % strength,"[1]; Dose 0.05 % w/v, BCT 60 s, in 25% EtOH, read-out: Log reduction",0.3
same,log reduction at 0.06 % strength,"[1]; Dose 0.06 % w/v, BCT 60 s, in 25% EtOH",0.9
same,log reduction at 0.07 % strength,"[1]; Dose 0.07 % w/v, BCT 60 s, in 25% EtOH",2.2
same,log reduction at 0.08 % strength,"[1]; Dose 0.080 % w/v, BCT 60 s, in 25% EtOH",5.2
same,log reduction at 0.05 % strength,[2]; Dose 0.05 % w/v,1.8
same,log reduction at 0.06 % strength,[2]; Dose 0.06 % w/v,3.7
same,log reduction at 0.07 % strength,[2]; Dose 0.07 % w/v,5.1
same,log reduction at 0.08 % strength,[2]; Dose 0.08 % w/v,7.1
same,log reduction at 0.1 % strength,[2]; Dose 0.1 % w/v,7.5
same,log reduction at 0.1 % strength,C. xerosis ATCC 373; [3],0.2
same,log reduction at 0.15 % strength,C. xerosis ATCC 373; [4],3.4
same,log reduction at 0.2 % strength,"C. xerosis ATCC 373; dose 0.2% w/v, contact 120 s, 25% EtOH, read-out: Log reduction",4.8
same,log reduction at 0.25 % strength,"C. xerosis ATCC 373; dose 0.25% w/v, contact 120 s, 25% EtOH, read-out: Log reduction",6.5
same,log reduction at 0.3 % strength,"C. xerosis ATCC 373; dose 0.3% w/v, contact 120 s, 25% EtOH, read-out: Log reduction",6.4
